The record followed here is patent publication US9765035B2 (priority 2013, dated 2017).

The target in the experiment is T1, Human CARM1 (PRMT4) (Homo sapiens, UniProt Q86X55).
T1 construct: Flag-CARM1-His; made in house; host or cells: HEK 293F cells (BacMam baculovirus)
T1 sequence (Q86X55 1-585 isoform Q86X55-1): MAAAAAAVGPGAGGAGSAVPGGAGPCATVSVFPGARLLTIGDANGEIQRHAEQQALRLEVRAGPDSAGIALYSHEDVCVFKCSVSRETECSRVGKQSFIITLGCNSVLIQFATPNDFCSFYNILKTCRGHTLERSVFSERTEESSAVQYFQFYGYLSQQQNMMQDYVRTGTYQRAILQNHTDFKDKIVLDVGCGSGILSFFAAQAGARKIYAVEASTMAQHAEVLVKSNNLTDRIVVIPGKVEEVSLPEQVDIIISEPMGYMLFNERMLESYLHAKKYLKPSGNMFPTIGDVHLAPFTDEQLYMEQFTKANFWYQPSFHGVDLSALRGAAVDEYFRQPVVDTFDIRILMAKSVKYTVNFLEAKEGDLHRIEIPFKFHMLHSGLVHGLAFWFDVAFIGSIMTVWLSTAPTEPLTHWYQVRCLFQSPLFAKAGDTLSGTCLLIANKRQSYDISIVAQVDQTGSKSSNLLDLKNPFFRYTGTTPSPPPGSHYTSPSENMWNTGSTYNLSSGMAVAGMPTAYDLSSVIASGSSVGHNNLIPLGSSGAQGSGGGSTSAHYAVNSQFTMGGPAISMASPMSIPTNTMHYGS
Kind of experiment: CARM1 Biochemical Assay. An excerpt: General Materials. S-adenosylmethionine (SAM), S-adenosylhomocysteine (SAH), bicine, Tween20, dimethylsulfoxide (DMSO), bovine skin gelatin (BSG), sodium butyrate and Tris(2-carboxyethyl)phosphine hydrochloride solution (TCEP) were purchased from Sigma-Aldrich at the highest level of purity possible. ^3H-SAM was purchase from American Radiolabeled Chemicals with a specific activity of 80 Ci/mmol. 384-well streptavidin Flashplates were purchased from PerkinElmer.
Substrates. Peptide representative of human histone H3 residues 16-30 was synthesized with an N-terminal linker-affinity tag motif and a C-terminal amide cap by 21st Century Biochemicals. The peptide was purified by high-performance liquid chromatography (HPLC) to greater than 95% purity and confirmed by liquid chromatography mass spectrometry (LC-MS). The sequence was Biot-Ahx-[…]-amide and contained a monomethylated arginine at position 26 (SEQ ID NO.: 14).
Molecular Biology: Human CARM1 (PRMT4) (NM_199141.1) transcript clone was amplified from an HEK 293 cDNA library, incorporating a flanking 5′ sequence encoding a FLAG tag ([…]) (SEQ ID NO.:6) fused directly to Ala 2 of CARM1 and 3′ sequence encoding a hexa His sequence ([…]) (SEQ ID NO.: 15) fused directly to Ser 608. The gene sequence encoding isoform1 containing a deletion of amino acids 539-561 was amplified subsequently and subcloned into pFastBacMam (Viva Biotech).
Protein Expression. Recombinant baculovirus were generated according to Bac-to-Bac kit instructions (Life Technologies). […] Infections were carried out at 37° C. for 48 hours, harvested by centrifugation, and stored at −80° C. for purification.
Protein Purification. […] Column was washed with 500 mM NaCl in buffer A and Flag-CARM1-His was eluted with 200 ug/ml FLAG peptide in buffer A. Pooled fractions were dialyzed in 20 mM Tris, 150 mM NaCl, 5% glycerol and 1 mM DTT, pH 7.8. The purity of recovered protein was 94.
General Procedure for CARM1 Enzyme Assays on Peptide Substrates. The assays were all performed in a buffer consisting of 20 mM Bicine (pH=7.6), 1 mM TCEP, 0.005% BSG, and 0.002% Tween 20, prepared on the day of use. Compounds in 100% DMSO (1 ul) were spotted into a polypropylene 384-well V-bottom plates (Greiner) using a Platemate Plus outfitted with a 384-channel head (Thermo Scientific). DMSO (1 ul) was added to Columns 11, 12, 23, 24, rows A-H for the maximum signal control and 1 ul of SAH, a known product and inhibitor of CARM1, was added to columns 11, 12, 23, 24, rows I-P for the minimum signal control. A cocktail (40 ul) containing the CARM1 enzyme was added by Multidrop Combi (Thermo-Fisher). The compounds were allowed to incubate with CARM1 for 30 min at room temperature, then a cocktail (10 ul) containing ^3H-SAM and peptide was added to initiate the reaction (final volume=51 ul). The final concentrations of the components were as follows: CARM1 was 0.25 nM, ^3H-SAM was 30 nM, peptide was 250 nM, SAH in the minimum signal control wells was 1 mM, and the DMSO concentration was 2%. The assays were stopped by the addition of non-radiolabeled SAM (10 ul) to a final concentration of 300 uM, which dilutes the ^3H-SAM to a level where its incorporation into the peptide substrate is no longer detectable. 50 ul of the reaction in the 384-well polypropylene plate was then transferred to a 384-well Flashplate and the biotinylated peptides were allowed to bind to the streptavidin surface for at least 1 hour before being washed once with 0.1% Tween20 in a Biotek EL×405 plate washer. The plates were then read in a PerkinElmer TopCount plate reader to measure the quantity of ^3H-labeled peptide bound to the Flashplate surface, measured as disintegrations per minute (dpm) or alternatively, referred to as counts per minute (cpm).
Where dpm=disintegrations per minute, cmpd=signal in assay well, and min and max are the respective minimum and maximum signal controls. […]

The mark [1] stands for this setting: PRMT4 IC50, biochemical evaluation, CARM1 (PRMT4), peptide substrate.
The mark [2] stands for this setting: PRMT4 biochemical evaluation (numerical), single experiment or average of multiple experiments.

Usually IC50 stands for the concentration that gives 50% inhibition. A lower IC50 goes with inhibition by little substance. As to `CNCCN(C)Cc1n[nH]c2ccc(Oc3cccc(Cl)c3)cc12` [Compound 27, N^1-((5-(3-chlorophenoxy)-1H-indazol-3-yl)methyl)-N^1,N^2-dimethylethane-1,2-diamine], the IC50 is 101 to 1000 nM under setting [1] and 390 nM under setting [2].
As to `CNCCN(C)Cc1n[nH]c2ccc(OC3CCN(C(C)=O)CC3)cc12` [Compound 58, 1-(4-((3-((methyl(2-(methylamino)ethyl)amino)methyl)-1H-indazol-5-yl)oxy)piperidin-1-yl)ethan-1-one], the half-maximal inhibitory concentration (IC50) by setting is: under setting [1], 1010 to 3000 nM; under setting [2], 248 nM.
On to `CNCCN(C)Cc1n[nH]c2ccc(C3=CCOCC3)cc12` [Compound 45], for which the IC50 by setting is: under setting [1], 101 to 1000 nM; under setting [2], 160 nM.
Regarding `CNCCN(C)Cc1n[nH]c2ccc(C3CCOCC3)cc12` [Compound 44, N^1,N^2-dimethyl-N^1-((5-(tetrahydro-2H-pyran-4-yl)-1H-indazol-3-yl)methyl)ethane-1,2-diamine], the 50% inhibitory concentration (IC50) is, setting by setting: under setting [1], 101 to 1000 nM; under setting [2], 1010 nM.
On to `CNCCN(C)Cc1n[nH]c2ccc(OCc3cccc(C(C)(C)C)c3)cc12` [Compound 74], for which the IC50 is, setting by setting: under setting [1], 101 to 1000 nM; under setting [2], 305 nM.
The compound `CNCCN(C)Cc1n[nH]c2ccc(OCC3CCN(C(C)=O)CC3)cc12` [Compound 51] had a half-inhibitory concentration (IC50) under setting [1] of 3010 to 10000 nM and an IC50 under setting [2] of more than 10000 nM.
For the compound `CNCCN(C)Cc1n[nH]c2ccc(OCc3ccc(C(F)(F)F)cc3)cc12` [Compound 68], the half-inhibitory concentration (IC50) reads like this: under setting [1], 3010 to 10000 nM; under setting [2], 1700 nM.
Take `CNCCN(C)Cc1n[nH]c2ccc(Oc3ccccc3OC)cc12` [Compound 24]: the 50% inhibitory concentration (IC50) was less than 100 nM under setting [1] and 115 nM under setting [2].
For the compound `CNCCN(C)Cc1n[nH]c2ccc(Oc3ccc(C)cc3)cc12` [Compound 55], the IC50 was 101 to 1000 nM under setting [1] and more than 10000 nM under setting [2].
Regarding `CCOc1ccc2[nH]nc(CN(C)CCNC)c2c1` [Compound 63], the concentration for half-maximal inhibition (IC50) is, setting by setting: under setting [1], 3010 to 10000 nM; under setting [2], 4160 nM.
For `CNCCN(C)Cc1n[nH]c2ccc(C3CCCCC3)cc12` [Compound 47, N^1-((5-cyclohexyl-1H-indazol-3-yl)methyl)-N^1,N^2-dimethylethane-1,2-diamine], the IC50 was 101 to 1000 nM under setting [1] and 370 nM under setting [2].
`CNCCN(C)Cc1nn(C2CCN(C(C)=O)CC2)c2ccc(OCc3ccc(C#N)cc3)cc12` [Compound 38]: the 50% inhibitory concentration (IC50) reads like this: under setting [1], 1010 to 3000 nM; under setting [2], more than 10000 nM.
Turning to `CNCCN(C)Cc1n[nH]c2ccc(OCC3CCOCC3)cc12` [Compound 50], the half-maximal inhibitory concentration (IC50) by setting is: under setting [1], 3010 to 10000 nM; under setting [2], 245 nM.
In turn, `CNCCN(C)Cc1n[nH]c2ccc(OC3CCCCC3)cc12` [Compound 18] gave a concentration for half-maximal inhibition (IC50) under setting [1] of 101 to 1000 nM.
`CNCCN(C)Cc1n[nH]c2ccc(OCc3ccc(C(C)(C)C)cc3)cc12` [Compound 71]: the IC50 reads like this: under setting [1], 3010 to 10000 nM; under setting [2], 3790 nM.
`CNCCN(C)Cc1n[nH]c2ccc(O)cc12` [Compound 36, 3-((methyl(2-(methylamino)ethyl)amino)methyl)-1H-indazol-5-ol]: the 50% inhibitory concentration (IC50) by setting is: under setting [1], 3010 to 10000 nM; under setting [2], 6130 nM.
With `CNCCN(C)Cc1n[nH]c2ccc(Oc3ccccc3Cl)cc12` [Compound 30], the IC50 is, setting by setting: under setting [1], 101 to 1000 nM; under setting [2], 2340 nM.
Compound `CNCCN(C)Cc1n[nH]c2ccc(Oc3ccc(OC(C)C)cc3)cc12` [Compound 61] had an IC50 under setting [1] of 3010 to 10000 nM and an IC50 under setting [2] of 87.3 nM.
